Measurements published in publication PMC12147761 (Journal of medicinal chemistry, 2025).

Tests used:
[1] = tested on: normal and non-neoplastic cells; test: Cell viability panel; type: cell-based, human; details: 5 days of treatment, compared with sensitive cancer cells
Experimental: Cells were seeded in 96-well plates and incubated at 37 °C and 5% CO2. After overnight incubation, serial dilutions of tested compounds were added to the plate. The assay was tested with Cell Titer-Glo (Promega) after 5 days. The luminescence signal was detected by the Infinite M1000 Pro plate reader (Tecan), and the IC50 values were calculated by GraphPad Prism 10.

[2] = tested on: phosphorylation of RNA polymerase II at Ser2; test: Washout experiment, RNA polymerase II Ser2 phosphorylation (immunoblot); type: cell-based, human; details: VCaP cells; YJZ5118 100 nM
Experimental: The previously reported reversible inhibitor 10 was included for comparison. VCaP cells were treated with the compounds for 6 h, after which the compounds were removed, and the cells were cultured in compound-free media for 5 days.
Generally, after incubation with the compounds for the indicated time, the tested cells were washed by cold PBS buffer (Gibco) and lysed with RIPA buffer (ThermoFisher Scientific) supplemented with cOmplete protease inhibitor cocktail tablets (Sigma-Aldrich). The cell lysate was treated with ultrasonic for 20s, following a centrifugation of 14000 rpm at 4°C for 10 min. The protein concentration was measured by BCA protein assay (DC Protein Assay, BIO-RAD). An equal amount of protein was loaded to 4–12% Bis-Tris gels and underwent SDS-PAGE electrophoresis at 120 V for 90 min. The proteins were transferred to a nitrocellulose (NC) membrane (Thermo Scientific) and the membranes were blocked in 5% milk buffer at room temperature for 1h, followed by incubating with primary antibody at the recommended dilution at 4°C for overnight. The membranes were washed by PBST for three times and incubated with anti-rabbit or anti-mouse HRP-conjugated secondary antibody for 1h at room temperature, after which the membranes were imaged by Odyssey CLx Imager (LiCOR Biosciences).

[3] = tested on: VCaP CRPC xenograft; test: In vivo efficacy, VCaP CRPC mouse model; set-up: species or system mice; details: YJZ5118 i.p., q.d., uprosertib p.o., 5x/week, 27 days, compared to vehicle
Experimental: All the animal experiments were performed under an approved animal protocol (Protocol ID: PRO00010006, PI, Arul Chinnaiyan) by the Institutional Animal Care & Use Committee of the University of Michigan. Six- to eight-week-old NSG (Jackson Laboratory) or CB17SCID female (Charles River Laboratory) mice were in a regular SPF housing room prior to cell injection. Briefly, 5 ×10^6 cells of VCaP CRPC were injected […] of NSG or CB17SCID mice, respectively. After tumor size reached approximately 200–400 mm^3, animals were subjected to drug treatment. […] Vehicle consisted of 20% PEG400, 6% Cremophor EL, and 74% PBS solution. Tumors were collected at the end of the experiment for Western blot analysis.

[4] = molecular target: T1, CDK9/CycK (Homo sapiens, UniProt P50750); test: CDK family panel, ADP-Glo; type: biochemical
T1 construct: ICE Bioscience Inc. (assay service)
Experimental: All the kinase activity were performed using an ADP-Glo kinase assay by ICE Bioscience Inc. (Beijing, China).

[5] = molecular target: T2, CDK18/CycY (Homo sapiens, UniProt Q07002); test: CDK family panel, ADP-Glo; type: biochemical
T2 construct: ICE Bioscience Inc. (assay service)
T2 sequence (Q07002 whole entry, species assumed): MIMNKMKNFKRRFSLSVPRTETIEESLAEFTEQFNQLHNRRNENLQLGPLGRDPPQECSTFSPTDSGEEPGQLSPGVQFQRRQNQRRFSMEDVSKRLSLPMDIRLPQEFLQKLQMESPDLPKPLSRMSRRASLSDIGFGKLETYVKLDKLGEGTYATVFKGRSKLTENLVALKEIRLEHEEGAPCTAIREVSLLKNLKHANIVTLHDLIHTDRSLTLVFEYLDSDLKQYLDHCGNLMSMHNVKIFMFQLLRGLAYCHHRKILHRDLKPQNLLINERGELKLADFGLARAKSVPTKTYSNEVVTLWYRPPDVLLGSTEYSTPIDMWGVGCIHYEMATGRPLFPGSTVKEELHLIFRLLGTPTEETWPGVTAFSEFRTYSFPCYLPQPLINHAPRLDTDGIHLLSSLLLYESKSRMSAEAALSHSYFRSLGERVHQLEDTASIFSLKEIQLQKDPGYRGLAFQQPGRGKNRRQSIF
T2 sequence (Q8ND76 whole entry partner, species assumed): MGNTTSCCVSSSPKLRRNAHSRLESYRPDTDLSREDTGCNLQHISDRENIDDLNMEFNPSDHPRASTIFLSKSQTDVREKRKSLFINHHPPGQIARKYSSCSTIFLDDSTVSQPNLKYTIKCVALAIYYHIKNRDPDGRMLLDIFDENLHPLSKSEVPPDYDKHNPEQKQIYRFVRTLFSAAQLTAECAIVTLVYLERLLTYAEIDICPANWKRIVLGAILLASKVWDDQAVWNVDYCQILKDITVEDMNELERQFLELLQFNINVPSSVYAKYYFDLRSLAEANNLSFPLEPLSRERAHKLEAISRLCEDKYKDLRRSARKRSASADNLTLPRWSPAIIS
Experimental: All the kinase activity were performed using an ADP-Glo kinase assay by ICE Bioscience Inc. (Beijing, China). Kinome selectivity profiles (KINOMEscan profiling) and Kd detection were performed by Eurofins DiscoveryX Corporation (San Diego, CA, USA).

T1 sequence (P50750 whole entry, species assumed): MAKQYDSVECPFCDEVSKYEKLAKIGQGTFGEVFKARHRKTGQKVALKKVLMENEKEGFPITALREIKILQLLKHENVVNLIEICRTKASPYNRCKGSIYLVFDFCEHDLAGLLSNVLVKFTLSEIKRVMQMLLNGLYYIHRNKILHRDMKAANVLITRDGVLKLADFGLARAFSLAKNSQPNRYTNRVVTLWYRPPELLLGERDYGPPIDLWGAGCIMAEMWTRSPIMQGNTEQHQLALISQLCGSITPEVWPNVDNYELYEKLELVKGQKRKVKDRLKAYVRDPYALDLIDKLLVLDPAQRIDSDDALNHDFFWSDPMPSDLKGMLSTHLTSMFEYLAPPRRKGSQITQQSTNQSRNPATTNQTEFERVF
T1 sequence (O75909 whole entry partner, species assumed): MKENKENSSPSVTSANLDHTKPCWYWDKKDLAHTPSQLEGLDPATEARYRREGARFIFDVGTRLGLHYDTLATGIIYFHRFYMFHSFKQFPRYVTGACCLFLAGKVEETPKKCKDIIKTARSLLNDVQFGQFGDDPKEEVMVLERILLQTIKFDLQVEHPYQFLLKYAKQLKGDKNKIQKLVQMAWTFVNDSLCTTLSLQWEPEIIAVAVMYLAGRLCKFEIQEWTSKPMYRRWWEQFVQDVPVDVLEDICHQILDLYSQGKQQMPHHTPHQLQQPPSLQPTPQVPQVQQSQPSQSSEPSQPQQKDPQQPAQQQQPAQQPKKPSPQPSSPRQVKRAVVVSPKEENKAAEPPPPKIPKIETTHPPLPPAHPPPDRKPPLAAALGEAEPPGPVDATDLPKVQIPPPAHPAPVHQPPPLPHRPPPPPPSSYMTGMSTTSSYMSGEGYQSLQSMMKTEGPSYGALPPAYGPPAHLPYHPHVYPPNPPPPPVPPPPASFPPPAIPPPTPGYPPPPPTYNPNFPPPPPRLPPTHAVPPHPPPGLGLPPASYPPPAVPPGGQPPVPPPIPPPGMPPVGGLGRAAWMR

For C=CC(=O)Nc1cc(N(C(=O)NCc2ccccc2)[C@H]2CC[C@H](Nc3ccc(C#N)cn3)CC2)ccc1N1CCC(N(C)C)CC1 [YJZ5118, N-(5-(3-benzyl-1-((1r,4r)-4-((5-cyanopyridin-2-yl)amino)cyclohexyl)ureido)-2-(4-(dimethylamino)piperidin-1-yl)phenyl)acrylamide], the “sensitivity of normal and non-neoplastic cells” value [1] was “much lower sensitive”, the “RNA polymerase II Ser2 phosphorylation after washout” value [2] was “complete loss of phosphorylation observed at 15 h after washout” and the tumor growth [3] was “significant reduction in tumor growth”. The IC50 [4] was 7160 nM and the IC50 [5] was > 10000 nM.
